How the values were obtained:
[1] = Rodent pharmacokinetics (rat PK); format: in vivo; conditions: po, dosed intravenously or orally by gavage, plasma, read-out: F % (bioavailability)
Outline: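 F % is reported as a letter code: A for ≥5%, B for ≤5%. It was derived from rat plasma profiles after intravenous or oral gavage dosing, with jugular vein sampling from predose to 24 h (5 min point for IV only).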

IRAK4 = target: T1, IRAK4 (Homo sapiens, UniProt Q9NWZ3); experiment: IRAK4 MSD degradation in OCI-LY10; format: cell-based; conditions: OCI-LY10 cells, 24 hrs, Meso Scale Discovery
T1 construct: endogenous in cells; host or cells: OCI-LY10
T1 sequence (Q9NWZ3 1-460): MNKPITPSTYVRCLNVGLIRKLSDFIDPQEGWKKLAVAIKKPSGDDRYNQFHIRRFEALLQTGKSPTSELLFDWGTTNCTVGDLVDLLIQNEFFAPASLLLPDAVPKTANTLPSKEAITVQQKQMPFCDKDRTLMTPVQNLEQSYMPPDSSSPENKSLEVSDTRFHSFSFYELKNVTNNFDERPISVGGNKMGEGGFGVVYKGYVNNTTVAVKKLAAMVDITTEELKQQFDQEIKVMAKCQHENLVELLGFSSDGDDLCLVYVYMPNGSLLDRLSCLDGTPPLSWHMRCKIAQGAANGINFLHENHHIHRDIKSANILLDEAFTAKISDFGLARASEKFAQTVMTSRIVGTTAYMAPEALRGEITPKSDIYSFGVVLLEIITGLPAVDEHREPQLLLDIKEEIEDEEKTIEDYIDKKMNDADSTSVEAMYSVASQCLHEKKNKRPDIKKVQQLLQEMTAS
Outline: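 Remaining IRAK4 protein measured by Meso Scale Discovery electrochemiluminescence sandwich assay on lysates of OCI-LY10 cells. Cells were exposed for 4 to 24 hours (37° C., 5% CO2) to eight 1:3-diluted concentrations starting at 1 to 10 μM. DC50 derived by three-parameter logistic fitting.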

| Compound | bioavailability [1] | DC50 (IRAK4) |
| --- | --- | --- |
| Cn1c(=O)n(C2CCC(=O)NC2=O)c2cccc(N3CCC(F)(CN4CCC(c5nc6cc(C(C)(C)O)c(NC(=O)c7cccc(C(F)(F)F)n7)cc6o5)CC4)CC3)c21 (stereo not shown) [I-197] | ≤ 5% | > 200 nM |
| COc1cc2nn([C@H]3CC[C@H](CN4CC[C@@H](c5cccc6c5n(C)c(=O)n6C5CCC(=O)NC5=O)[C@H](F)C4)CC3)cc2cc1C(=O)Nc1cccc(C(F)(F)F)n1 (stereo partly shown) [I-200] | ≤ 5% | < 10 nM |
| Cn1c(=O)n(C2CCC(=O)NC2=O)c2cccc([C@@H]3CCN(C[C@H]4CC[C@H](n5cc6cc(C(=O)Nc7cccc(C(F)(F)F)n7)ccc6n5)CC4)C[C@H]3F)c21 (stereo partly shown) [I-201] | ≤ 5% | < 10 nM |
| COc1cc2nn([C@H]3CC[C@H](CN4CCC5(CCN(c6cccc7c6n(C)c(=O)n7C6CCC(=O)NC6=O)CC5)C(F)(F)C4)CC3)cc2cc1C(=O)Nc1cncc(C#N)c1 (stereo partly shown) [I-228] | ≤ 5% | < 10 nM |
| COc1cc2nn([C@H]3CC[C@H](CN4CCC5(CN(c6cccc7c6n(C)c(=O)n7C6CCC(=O)NC6=O)C5)C(F)(F)C4)CC3)cc2cc1NC(=O)c1cncc(C)c1 (stereo partly shown) [I-243] | ≤ 5% | < 10 nM |
| Cn1c(=O)n(C2CCC(=O)NC2=O)c2cccc([C@@H]3CCN(C[C@H]4CC[C@H](n5cc6cc(NC(=O)c7cccc(C(F)(F)F)c7)ncc6n5)CC4)C[C@H]3F)c21 (stereo partly shown) [I-244] | ≤ 5% | < 10 nM |
| Cn1c(=O)n(C2CCC(=O)NC2=O)c2cccc([C@@H]3CCN(C[C@H]4CC[C@H](n5cc6cc(NC(=O)c7cccc(C(F)(F)F)c7)ccc6n5)CC4)C[C@H]3F)c21 (stereo partly shown) [I-245] | ≤ 5% | < 10 nM |
| COc1cc2nn([C@H]3CC[C@H](CN4CCC5(CN(c6cccc7c6n(C)c(=O)n7C6CCC(=O)NC6=O)C5)C(F)(F)C4)CC3)cc2cc1NC(=O)c1cncc(F)c1 (stereo partly shown) [I-248] | ≤ 5% | < 10 nM |
| Cn1c(=O)n(C2CCC(=O)NC2=O)c2cccc(N3CC4(CCN(C[C@H]5CC[C@H](n6cc7cc(NC(=O)c8cccc(C(F)(F)F)c8)ncc7n6)CC5)CC4(F)F)C3)c21 (stereo partly shown) [I-253] | ≤ 5% | < 10 nM |
| Cn1c(=O)n(C2CCC(=O)NC2=O)c2cccc(N3CC4(CCN(C[C@H]5CC[C@H](n6cc7cc(NC(=O)c8cccc(C(F)(F)F)c8)ccc7n6)CC5)CC4(F)F)C3)c21 (stereo partly shown) [I-254] | ≤ 5% | < 10 nM |
| COc1cc2nn([C@H]3CC[C@H](CN4CCC5(CN(c6cccc7c6n(C)c(=O)n7C6CCC(=O)NC6=O)C5)C(F)(F)C4)CC3)cc2cc1NC(=O)c1cccc(C(F)(F)F)c1 (stereo partly shown) [I-255] | ≤ 5% | < 10 nM |
| Cn1c(=O)n(C2CCC(=O)NC2=O)c2cccc(N3CC(OC[C@H]4CC[C@H](n5cc(NC(=O)c6cnn7ccc(N8C[C@H]9C[C@@H]8CO9)nc67)c(C(F)F)n5)CC4)C3)c21 (stereo partly shown) [I-256] | ≤ 5% | > 200 nM |
| COc1cc2nn([C@H]3CC[C@H](CN4CCC5(CCN(c6cccc7c6n(C)c(=O)n7C6CCC(=O)NC6=O)CC5)C(F)(F)C4)CC3)cc2cc1NC(=O)c1cncc(C)c1 (stereo partly shown) [I-257] | ≤ 5% | < 10 nM |
| COc1cc2nn([C@H]3CC[C@H](CN4CCC5(CCN(c6cccc7c6n(C)c(=O)n7C6CCC(=O)NC6=O)CC5)C(F)(F)C4)CC3)cc2cc1NC(=O)c1cncc(C#N)c1 (stereo partly shown) [I-259] | ≤ 5% | < 10 nM |
| COc1cc2nn([C@H]3CC[C@H](CN4CCC5(CN(c6c(F)ccc7c6n(C)c(=O)n7C6CCC(=O)NC6=O)C5)C(F)(F)C4)CC3)cc2cc1NC(=O)c1cncc(C#N)c1 (stereo partly shown) [I-260] | ≤ 5% | < 10 nM |
| Cn1c(=O)n(C2CCC(=O)NC2=O)c2cccc([C@@H]3CCN(C[C@H]4CC[C@H](c5cn6cc(NC(=O)c7cccc(C(F)(F)F)n7)ccc6n5)CC4)C[C@H]3F)c21 (stereo partly shown) [I-262] | ≤ 5% | < 10 nM |
| Cn1c(=O)n(C2CCC(=O)NC2=O)c2cccc([C@@H]3CCN(C[C@H]4CC[C@H](c5cn6cc(NC(=O)c7cccc(C(F)(F)F)n7)c(C(C)(C)O)cc6n5)CC4)C[C@H]3F)c21 (stereo partly shown) [I-268] | ≤ 5% | < 10 nM |
| Cn1c(=O)n(C2CCC(=O)NC2=O)c2cccc(N3CC(COC[C@H]4CC[C@H](n5cc6cc(NC(=O)c7cccc(C(F)(F)F)c7)ncc6n5)CC4)C3)c21 (stereo partly shown) [I-269] | ≤ 5% | > 200 nM |
| Cn1c(=O)n(C2CCC(=O)NC2=O)c2cccc([C@@H]3CCN(C[C@H]4CC[C@H](c5cn6cc(NC(=O)c7cccc(C(F)(F)F)c7)ccc6n5)CC4)C[C@H]3F)c21 (stereo partly shown) [I-274] | ≤ 5% | < 10 nM |
| Cn1c(=O)n(C2CCC(=O)NC2=O)c2cccc([C@@H]3CCN(C[C@H]4CC[C@H](c5cn6cc(NC(=O)c7cccc(C(F)(F)F)c7)c(C(C)(C)O)cc6n5)CC4)C[C@H]3F)c21 (stereo partly shown) [I-276] | ≤ 5% | < 10 nM |
| COc1cc2nc([C@H]3CC[C@H](CN4CC[C@@H](c5cccc6c5n(C)c(=O)n6C5CCC(=O)NC5=O)[C@H](F)C4)CC3)cn2cc1NC(=O)c1cccc(C(F)(F)F)c1 (stereo partly shown) [I-278] | ≤ 5% | < 10 nM |
| COc1cc2nc([C@H]3CC[C@H](CN4CC[C@@H](c5cccc6c5n(C)c(=O)n6C5CCC(=O)NC5=O)[C@H](F)C4)CC3)oc2cc1NC(=O)c1cncc(C(F)(F)F)n1 (stereo partly shown) [I-284] | ≤ 5% | 10 to 100 nM |
| Cn1c(=O)n(C2CCC(=O)NC2=O)c2cccc([C@@H]3CCN(C[C@H]4CC[C@H](c5nc6cc(C(C)(C)O)c(NC(=O)c7cncc(C(F)(F)F)n7)cc6o5)CC4)C[C@H]3F)c21 (stereo partly shown) [I-288] | ≥ 5% | < 10 nM |

Further lines, results first:

| bioavailability [1] | DC50 (IRAK4) | Compound |
| --- | --- | --- |
| ≤ 5% | < 10 nM | Cn1c(=O)n(C2CCC(=O)NC2=O)c2cccc([C@@H]3CCN(C[C@H]4CC[C@H](n5cc6cc(NC(=O)c7cncc(C(F)(F)F)n7)c(Cl)cc6n5)CC4)C[C@H]3F)c21 (stereo partly shown) [I-210] |
| ≤ 5% | < 10 nM | Cn1c(=O)n(C2CCC(=O)NC2=O)c2cccc([C@@H]3CCN(C[C@H]4CC[C@H](n5cc6cc(NC(=O)c7cncc(C(F)(F)F)n7)c(C(F)F)cc6n5)CC4)C[C@H]3F)c21 (stereo partly shown) [I-214] |
| ≤ 5% | < 10 nM | COc1cc2nn([C@H]3CC[C@H](CN4CC[C@@H](c5cccc6c5n(C)c(=O)n6C5CCC(=O)NC5=O)[C@H](F)C4)CC3)cc2cc1NC(=O)c1cccc(C(F)(F)F)c1 (stereo partly shown) [I-246] |
| ≤ 5% | < 10 nM | COc1cc2nn([C@H]3CC[C@H](CN4CCC5(CN(c6cccc7c6n(C)c(=O)n7C6CCC(=O)NC6=O)C5)C(F)(F)C4)CC3)cc2cc1NC(=O)c1cncc(C#N)c1 (stereo partly shown) [I-247] |
| ≤ 5% | < 10 nM | Cn1c(=O)n(C2CCC(=O)NC2=O)c2cccc([C@@H]3CCN(C[C@H]4CC[C@H](n5cc6cc(NC(=O)c7cccc(C#N)c7)ccc6n5)CC4)C[C@H]3F)c21 (stereo partly shown) [I-249] |
| ≤ 5% | < 10 nM | COc1cc2nn([C@H]3CC[C@H](CN4CC[C@@H](c5cccc6c5n(C)c(=O)n6C5CCC(=O)NC5=O)[C@H](F)C4)CC3)cc2cc1NC(=O)c1cccc(C#N)c1 (stereo partly shown) [I-250] |
| ≤ 5% | < 10 nM | COc1cc2nn([C@H]3CC[C@H](CN4CC[C@@H](c5cccc6c5n(C)c(=O)n6C5CCC(=O)NC5=O)[C@H](F)C4)CC3)cc2cc1NC(=O)c1cncc(C(F)(F)F)c1 (stereo partly shown) [I-252] |
| ≤ 5% | 10 to 100 nM | COc1cc2nn([C@H]3CC[C@H](COCC4CN(c5cccc6c5n(C)c(=O)n6C5CCC(=O)NC5=O)C4)CC3)cc2cc1NC(=O)c1cncc(C#N)c1 (stereo partly shown) [I-270] |
| ≤ 5% | < 10 nM | COc1cc2nn([C@H]3CC[C@H](CN4CC[C@@H](c5cccc6c5n(C)c(=O)n6C5CCC(=O)NC5=O)[C@H](F)C4)CC3)cc2cc1NC(=O)c1cncc(C(F)F)c1 (stereo partly shown) [I-271] |
| ≤ 5% | > 200 nM | Cc1cc2nn([C@H]3CC[C@H](CN4CC[C@@H](c5cccc6c5n(C)c(=O)n6C5CCC(=O)NC5=O)[C@H](F)C4)CC3)cc2cc1NC(=O)c1cncc(C#N)c1 (stereo partly shown) [I-272] |
| ≤ 5% | < 10 nM | CC(C)Oc1cc2nn([C@H]3CC[C@H](CN4CC[C@@H](c5cccc6c5n(C)c(=O)n6C5CCC(=O)NC5=O)[C@H](F)C4)CC3)cc2cc1NC(=O)c1cncc(C#N)c1 (stereo partly shown) [I-275] |
| ≤ 5% | < 10 nM | COc1cc2nn([C@H]3CC[C@H](CN4CC[C@@H](c5cccc6c5n(C)c(=O)n6C5CCC(=O)NC5=O)[C@H](F)C4)CC3)cc2cc1C(=O)Nc1cncc(C(F)(F)F)c1 (stereo partly shown) [I-283] |
| ≤ 5% | < 10 nM | Cc1cc2nn([C@H]3CC[C@H](CN4CC[C@@H](c5cccc6c5n(C)c(=O)n6C5CCC(=O)NC5=O)[C@H](F)C4)CC3)cc2cc1NC(=O)c1cncc(C(F)(F)F)n1 (stereo partly shown) [I-286] |
| ≤ 5% | < 10 nM | COc1cc2nn([C@H]3CC[C@H](CN4CC[C@@H](c5cccc6c5n(C)c(=O)n6C5CCC(=O)NC5=O)[C@H](F)C4)CC3)cc2cc1C(=O)Nc1cncc(C(F)(F)F)n1 (stereo partly shown) [I-290] |
| ≤ 5% | < 10 nM | Cn1c(=O)n(C2CCC(=O)NC2=O)c2cccc([C@@H]3CCN(C[C@H]4CC[C@H](n5cc6cc(NC(=O)c7cncc(C(F)(F)F)n7)c(F)cc6n5)CC4)C[C@H]3F)c21 (stereo partly shown) [I-296] |
